Results as given in US7323433B2, “R-(-)-1-[2-(7-chlorobenzo[b]thiopen-3-yl-methoxy)-2-(2,4-dichlorophenyl)-ethyl]-1H-imidazole” (Ferrer Internacional, S.A., priority 2002, dated 2008).
≈ marks a conversion by molar mass, not a printed value. Where two headings read alike, the source gives them in different places.

Experiments:
Type in all cases: cell-based
Filamentous fungi = assay: MIC by modified NCCLS M27-A microdilution, Filamentous fungi; conditions: 11 strains, geometric mean, MIC = lowest concentration giving 50% inhibition of growth
Procedure: (§1) Minimal Inhibitory Concentrations (MICs) were determined by using a modification of the microdilution method M27-A recommended by the National Committee for Clinical Laboratory Standards in RPMI-1640 medium (Sigma) supplemented with glucose to a concentration of 2% and adjusted to pH 7.0 with 0.165 M morpholine propanesulfonic (MOPS) acid buffer. Serial twofold dilutions were made in modified RPMI-1640 medium from stock solutions. MICs were defined as the lowest drug concentrations resulting in 50% inhibition of growth compared to that of the growth control. […] The number of strains used in the experiments is given in parenthesis below the name of each microorganism.

Malassezia spp = assay: MIC by modified NCCLS M27-A microdilution, Malassezia spp; conditions: 11 strains, geometric mean, MIC = lowest concentration giving 50% inhibition of growth
Procedure: as §1

Dermatophytes = assay: MIC by modified NCCLS M27-A microdilution, Dermatophytes; conditions: 17 strains, geometric mean, MIC = lowest concentration giving 50% inhibition of growth
Procedure: as §1

Candida spp = assay: MIC by modified NCCLS M27-A microdilution, Candida spp; conditions: 42 strains, geometric mean, MIC = lowest concentration giving 50% inhibition of growth
Procedure: as §1

fungi and yeasts = assay: Microbiological activity (MIC) overall, comparison of enantiomers and racemate
Procedure: as §1

[1] = RPMI-1640 2% glucose pH 7.0, read-out: MIC

Compound | MIC (Filamentous fungi; [1]) | MIC (Malassezia spp; [1]) | MIC (Dermatophytes; [1]) | MIC (Candida spp; [1]) | microbiological activity in comparison with R-(−)sertaconazole (fungi and yeasts; in words, from Table 1) | MIC (Filamentous fungi; RPMI-1640 2% glucose pH 7.0) | MIC (Malassezia spp; RPMI-1640 2% glucose pH 7.0) | MIC (Dermatophytes; RPMI-1640 2% glucose pH 7.0) | MIC (Candida spp; RPMI-1640 2% glucose pH 7.0) | activity compared with the racemic mixture (fungi and yeasts; against both fungi and yeasts, as shown in Table 1)
Clc1ccc(C(Cn2ccnc2)OCc2csc3c(Cl)cccc23)c(Cl)c1 (racemic) [Racemate, 1-[2-(7-chlorobenzo[b]thiophen-3-yl-methoxy)-2-(2,4-dichlorophenyl)-ethyl]-1H-imidazole] | 3.11 µg/mL (≈ 7.1 µM) | 1.37 µg/mL (≈ 3.13 µM) | 0.08 µg/mL (≈ 0.183 µM) | 0.256 µg/mL (≈ 0.585 µM) |  |  |  |  |  | 
Clc1ccc([C@@H](Cn2ccnc2)OCc2csc3c(Cl)cccc23)c(Cl)c1.O=[N+]([O-])O (single isomer, unassigned) [S-(+)enantiomer] |  |  |  |  | much less active | 16 µg/mL | 10.96 µg/mL | 0.17 µg/mL | 3.217 µg/mL | 
Clc1ccc([C@H](Cn2ccnc2)OCc2csc3c(Cl)cccc23)c(Cl)c1.O=[N+]([O-])O [R-(−)enantiomer, (R)-(−)-1-[2-(7-chlorobenzo[b]thiophen-3-yl-methoxy)-2-(2,4-dichlorophenyl)-ethyl]-1H-imidazole mononitrate] | 1.76 µg/mL | 0.64 µg/mL | 0.04 µg/mL | 0.125 µg/mL |  |  |  |  |  | about 2 times
